# Measured values reported in US20020019394A1, “Bicyclic sulfonyl amino inhibitors of factor Xa” (priority 2000, published 2002).
# Read-outs that look alike come from different tables or passages of the source.
# Assays:
# factor Xa = factor Xa (Homo sapiens, UniProt P00742); test: Factor Xa amidolytic assay (chromogenic substrate S-2765)
# Procedure: (§2) In the assays for thrombin, prothrombinase and factor Xa, a synthetic chromogenic substrate is added to a solution containing test compound and the enzyme of interest and the residual catalytic activity of that enzyme is determined spectrophotometrically. The IC50 of a compound is determined from the substrate turnover. […] The factor Xa and thrombin assays are performed at room temperature, in 0.02 M Tris.HCl buffer, pH 7.5, containing 0.15 M NaCl.
# prothrombinase complex = prothrombinase complex (Homo sapiens, UniProt P00742); test: Prothrombinase inhibition assay, plasma free system; format: biochemical
# Procedure: The prothrombinase inhibition assay is performed in a plasma free system with modifications to the method described by Sinha, U. et al., Thromb. […] Specifically, the activity of the prothrombinase complex is determined by measuring the time course of thrombin generation using the p-nitroanilide substrate Chromozym TH. […] Aliquots from the complex-inhibitor mixture are added to prothrombin (1 nM) and Chromozym TH (0.1 mM). […] Eight different concentrations of inhibitor are assayed in duplicate. A standard curve of thrombin generation by an equivalent amount of untreated complex is used for determination of percent inhibition.
# thrombin = thrombin (Homo sapiens, UniProt P00734); test: Thrombin amidolytic assay (Chromozym TH)
# Procedure: as §2
# TPA = TPA (Homo sapiens, UniProt P00750); test: In vitro protease activity assay, TPA; format: biochemical
# Excerpt: (§1) Evaluation of the compounds of this invention is guided by in vitro protease activity assays (see below) and in vivo studies to evaluate antithrombotic efficacy, and effects on hemostasis and hematological parameters (see below).
# PLASMIN = target: T1, PLASMIN (Homo sapiens, UniProt P00747); test: In vitro protease activity assay, plasmin; format: biochemical
# T1 construct: PLASMIN
# Excerpt: as §1
# APC = APC (Homo sapiens, UniProt P04070); test: In vitro protease activity assay, APC; format: biochemical
# Excerpt: as §1
# [1] = Table 4, read-out: IC50 (nM) Prothrombinase
# [2] = Table 6, read-out: IC50 (nM) Prothrombinase
# TPA, sequence (P00750 36-562, species assumed): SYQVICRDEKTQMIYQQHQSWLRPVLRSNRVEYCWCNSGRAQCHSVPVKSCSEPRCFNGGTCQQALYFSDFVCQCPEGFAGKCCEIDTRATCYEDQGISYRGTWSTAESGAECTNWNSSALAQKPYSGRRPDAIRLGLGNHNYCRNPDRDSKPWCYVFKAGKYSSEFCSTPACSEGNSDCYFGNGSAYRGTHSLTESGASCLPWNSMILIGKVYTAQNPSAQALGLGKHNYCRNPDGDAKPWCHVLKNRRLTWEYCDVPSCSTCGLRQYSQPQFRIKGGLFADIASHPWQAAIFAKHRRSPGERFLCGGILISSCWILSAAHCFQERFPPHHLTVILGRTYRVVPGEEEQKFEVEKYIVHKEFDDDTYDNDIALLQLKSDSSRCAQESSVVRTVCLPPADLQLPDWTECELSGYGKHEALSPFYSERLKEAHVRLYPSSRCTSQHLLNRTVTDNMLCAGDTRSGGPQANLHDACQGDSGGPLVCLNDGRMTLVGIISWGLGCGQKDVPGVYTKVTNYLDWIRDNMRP
# T1 sequence (P00747 581-810 limits assumed, species assumed): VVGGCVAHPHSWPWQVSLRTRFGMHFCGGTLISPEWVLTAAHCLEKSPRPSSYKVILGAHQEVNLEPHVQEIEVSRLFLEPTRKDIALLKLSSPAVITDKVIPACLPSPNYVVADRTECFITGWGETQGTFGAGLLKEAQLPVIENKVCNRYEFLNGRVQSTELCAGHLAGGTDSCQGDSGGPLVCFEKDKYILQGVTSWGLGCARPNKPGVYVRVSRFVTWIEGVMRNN
# T1 sequence (P00747 97-580 limits assumed, species assumed): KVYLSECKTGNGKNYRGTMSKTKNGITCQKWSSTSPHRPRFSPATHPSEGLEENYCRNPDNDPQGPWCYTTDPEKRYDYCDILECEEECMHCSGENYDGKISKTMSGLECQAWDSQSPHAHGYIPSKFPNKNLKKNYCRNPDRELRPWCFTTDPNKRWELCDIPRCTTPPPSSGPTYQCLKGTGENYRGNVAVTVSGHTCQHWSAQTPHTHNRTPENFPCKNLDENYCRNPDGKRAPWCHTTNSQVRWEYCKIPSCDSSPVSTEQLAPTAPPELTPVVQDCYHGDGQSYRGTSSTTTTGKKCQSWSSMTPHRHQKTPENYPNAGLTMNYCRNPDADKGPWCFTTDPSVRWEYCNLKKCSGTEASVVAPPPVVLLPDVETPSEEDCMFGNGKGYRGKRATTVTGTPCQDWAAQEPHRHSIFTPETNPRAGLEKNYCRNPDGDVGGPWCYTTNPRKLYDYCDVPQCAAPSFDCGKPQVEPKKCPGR
# APC, sequence (P04070 212-450 limits assumed): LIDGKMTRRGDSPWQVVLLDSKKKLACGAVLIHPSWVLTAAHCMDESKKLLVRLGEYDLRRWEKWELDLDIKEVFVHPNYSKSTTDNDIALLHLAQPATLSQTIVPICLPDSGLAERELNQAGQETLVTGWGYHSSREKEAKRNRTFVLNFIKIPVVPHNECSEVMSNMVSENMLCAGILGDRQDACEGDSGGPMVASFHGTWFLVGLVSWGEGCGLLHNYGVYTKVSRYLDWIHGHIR
# APC, sequence (P04070 43-197 limits assumed): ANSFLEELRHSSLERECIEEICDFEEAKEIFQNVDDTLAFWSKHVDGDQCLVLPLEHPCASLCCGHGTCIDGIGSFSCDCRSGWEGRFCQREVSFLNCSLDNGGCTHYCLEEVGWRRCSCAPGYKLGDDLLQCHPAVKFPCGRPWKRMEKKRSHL
# factor Xa, sequence (P00742 235-488 limits assumed): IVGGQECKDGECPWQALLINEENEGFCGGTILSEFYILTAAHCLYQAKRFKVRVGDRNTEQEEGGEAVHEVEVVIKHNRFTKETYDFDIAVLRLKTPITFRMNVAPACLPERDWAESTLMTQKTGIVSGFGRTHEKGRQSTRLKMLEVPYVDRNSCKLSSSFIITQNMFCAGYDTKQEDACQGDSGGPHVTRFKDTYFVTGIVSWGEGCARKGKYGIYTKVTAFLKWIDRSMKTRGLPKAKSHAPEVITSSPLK
# factor Xa, sequence (P00742 41-179 limits assumed): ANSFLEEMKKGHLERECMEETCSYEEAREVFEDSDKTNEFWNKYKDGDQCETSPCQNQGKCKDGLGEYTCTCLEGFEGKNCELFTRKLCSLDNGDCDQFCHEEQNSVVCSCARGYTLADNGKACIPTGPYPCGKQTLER
# prothrombinase complex, sequence (P00742 235-488 limits assumed): as the sequence (P00742 235-488 limits assumed) above
# prothrombinase complex, sequence (P00742 41-179 limits assumed): as the sequence (P00742 41-179 limits assumed) above
# prothrombinase complex, sequence (P12259 29-737 partner limits assumed): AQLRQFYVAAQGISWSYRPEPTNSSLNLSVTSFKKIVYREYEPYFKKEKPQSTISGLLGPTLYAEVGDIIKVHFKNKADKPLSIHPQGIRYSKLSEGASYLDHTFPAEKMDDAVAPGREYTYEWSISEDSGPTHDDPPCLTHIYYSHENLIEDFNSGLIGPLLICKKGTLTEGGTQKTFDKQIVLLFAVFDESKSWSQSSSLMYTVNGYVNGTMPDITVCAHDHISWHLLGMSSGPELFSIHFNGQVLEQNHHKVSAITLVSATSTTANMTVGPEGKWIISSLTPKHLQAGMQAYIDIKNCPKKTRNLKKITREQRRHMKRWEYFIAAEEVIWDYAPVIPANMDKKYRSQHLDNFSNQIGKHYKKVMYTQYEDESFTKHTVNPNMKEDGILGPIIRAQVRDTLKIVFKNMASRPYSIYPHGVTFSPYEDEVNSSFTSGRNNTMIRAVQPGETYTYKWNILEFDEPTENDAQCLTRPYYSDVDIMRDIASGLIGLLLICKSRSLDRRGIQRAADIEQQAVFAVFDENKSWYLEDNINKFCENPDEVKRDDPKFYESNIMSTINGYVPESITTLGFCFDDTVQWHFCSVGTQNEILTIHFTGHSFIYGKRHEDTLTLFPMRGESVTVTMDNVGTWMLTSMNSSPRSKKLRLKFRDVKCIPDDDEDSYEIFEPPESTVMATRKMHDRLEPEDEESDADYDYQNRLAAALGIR
# prothrombinase complex, sequence (P12259 1574-2224 partner limits assumed): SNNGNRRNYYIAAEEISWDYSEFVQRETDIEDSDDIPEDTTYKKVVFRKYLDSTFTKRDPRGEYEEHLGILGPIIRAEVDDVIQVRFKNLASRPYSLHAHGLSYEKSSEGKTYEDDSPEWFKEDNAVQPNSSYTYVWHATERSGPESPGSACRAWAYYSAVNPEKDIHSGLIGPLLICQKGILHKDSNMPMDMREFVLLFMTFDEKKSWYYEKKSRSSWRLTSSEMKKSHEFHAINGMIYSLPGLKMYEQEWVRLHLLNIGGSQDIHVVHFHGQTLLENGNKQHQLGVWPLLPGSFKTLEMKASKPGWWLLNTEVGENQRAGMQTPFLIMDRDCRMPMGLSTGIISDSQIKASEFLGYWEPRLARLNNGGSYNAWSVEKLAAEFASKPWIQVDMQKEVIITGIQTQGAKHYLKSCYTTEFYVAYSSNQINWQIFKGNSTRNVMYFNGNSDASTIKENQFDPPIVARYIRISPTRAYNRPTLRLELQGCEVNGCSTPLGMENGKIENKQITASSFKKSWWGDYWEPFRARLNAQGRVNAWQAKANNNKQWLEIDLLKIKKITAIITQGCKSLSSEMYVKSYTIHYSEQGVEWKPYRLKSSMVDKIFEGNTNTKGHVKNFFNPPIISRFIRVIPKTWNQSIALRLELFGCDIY
SMILES,IC50 (factor Xa) [µM],IC50 (prothrombinase complex; read-out: IIASE) [nM],IC50 (thrombin) [µM],other results
CC(=N)N1CCC(Oc2ccc(N(Cc3cc4cc(C(=N)N)ccc4n3C)S(C)(=O)=O)cc2)CC1 [Compound 15],0.0306,–,11.8,IC50 (prothrombinase complex; [1]): 66.5 nM
NC(=O)c1ccc2ccc(CN3c4ccc(OC5CCNCC5)cc4CCS3(=O)=O)cc2c1 [Example 5],1.31,1290,–,–
N=C(N)c1ccc2ccc(CN3c4ccc(OC5CCNCC5)cc4C=CS3(=O)=O)cc2c1 [Example 1],1.03,15800,136,–
CC(=N)N1CCC(Oc2ccc(N(Cc3cc4cc(C(=N)N)ccc4s3)S(=O)(=O)CC(=O)O)cc2)CC1 [Compound 43],0.0035,–,193,IC50 (prothrombinase complex; [2]): 7.6 nM
N=C(N)c1ccc2ccc(CN3c4ccc(OC5CCN(C(=N)N)CC5)cc4C=CS3(=O)=O)cc2c1 [Example 3],0.0113,10,16.7,IC50 (TPA): 1.21 µM; IC50 (PLASMIN): 1.14 µM; IC50 (APC): 0.895 µM
CS(=O)(=O)N(Cc1ccc2ccc(C(=N)N)cc2c1)c1ccc(C(=O)N2CCCC2C(N)=O)cc1 (stereo not shown) [Example 24],–,–,–,"IC50 (factor Xa; read-out: XA, Examples 1-26 table): 3.44 µM"
CC(=N)N1CCC(Oc2ccc(N(Cc3ccc4ccc(C(=N)N)cc4c3)S(C)(=O)=O)cc2)CC1 [Compound 2],0.0063,–,95.2,IC50 (prothrombinase complex; [1]): 7 nM
CC(=N)N1CCC(Oc2ccc(N(Cc3ccc(-c4cccc(C(=N)N)c4)cc3)S(C)(=O)=O)cc2)CC1 [Compound 12],0.0252,–,> 11,"IC50 (prothrombinase complex; Table 3, read-out: IC50 (nM) Prothrombinase): 730 nM"
CC(=N)N1CCC(Oc2ccc3c(c2)C=CS(=O)(=O)N3Cc2ccc3ccc(C(=N)N)cc3c2)CC1 [Example 2],0.00641,64.6,117,IC50 (TPA): 1.6 µM; IC50 (PLASMIN): 2.35 µM; IC50 (APC): 1.88 µM
N=C(N)c1ccc2ccc(CN3c4ccc(OC5CCN(C(=N)N)CC5)cc4CCS3(=O)=O)cc2c1 [Example 7],0.0153,33.2,24.8,IC50 (TPA): 5.96 µM; IC50 (PLASMIN): 2.23 µM; IC50 (APC): 3.37 µM
CC(=N)N1CCC(Oc2ccc(N(Cc3cccc(-c4cccc(C(=N)N)c4)c3)S(=O)(=O)CC(=O)O)cc2)CC1 [Compound 41],0.0036,–,39.2,IC50 (prothrombinase complex; [2]): 6.6 nM
CC(=N)N1CCC(Oc2ccc(N(Cc3cc4cc(C(=N)N)ccc4s3)S(C)(=O)=O)cc2)CC1 [Compound 13],–,–,30.9,–

# Further lines, with some results ahead:
IC50 (factor Xa) [µM],IC50 (prothrombinase complex; read-out: IIASE) [nM],IC50 (thrombin) [µM],SMILES,other results
1.18,2000,256,N=C(N)c1ccc2ccc(CN3c4ccc(OC5CCNCC5)cc4CCS3(=O)=O)cc2c1 [Example 4],–
0.012,12.2,116,CC(=N)N1CCC(Oc2ccc3c(c2)CCS(=O)(=O)N3Cc2ccc3ccc(C(=N)N)cc3c2)CC1 [Example 6],IC50 (TPA): 4.53 µM; IC50 (PLASMIN): 2.36 µM; IC50 (APC): 3.85 µM
0.0091,–,12,CCOC(=O)CS(=O)(=O)N(Cc1cc2cc(C(=N)N)ccc2s1)c1ccc(OC2CCN(C(C)=N)CC2)cc1 [Compound 42],IC50 (prothrombinase complex; [2]): 8.4 nM
–,–,> 11,CC(=N)N1CCC(Oc2ccc(N(Cc3cc(C)n(-c4cccc(C(=N)N)c4)n3)S(C)(=O)=O)cc2)CC1 [Compound 17],–
–,–,133,CC(=N)N1CCC(Oc2ccc(N(Cc3cccc(-c4cccc(C(=N)N)c4)c3)S(C)(=O)=O)cc2)CC1 [Compound 3],–
4.06,–,146,CS(=O)(=O)N(Cc1ccc2ccc(C(=N)N)cc2c1)c1ccc(C(=O)N2CCC[C@H]2C(N)=O)cc1 [Compound 25],"IC50 (prothrombinase complex; Table 5, read-out: IC50 (nM) Prothrombinase): 95000 nM"
–,–,> 11,CC(=N)N1CCC(Oc2ccc(N(Cc3cc(C)nn3-c3cccc(C(=N)N)c3)S(C)(=O)=O)cc2)CC1 [Compound 16],–
